Molecular target: T1, hCRTH2 (Homo sapiens, UniProt Q9Y5Y4)
T1 construct: expressed in transfected cells; host or cells: HEK (human embryonic kidney) cells expressing hCRTH2; membrane preparation
T1 sequence (Q9Y5Y4 1-395): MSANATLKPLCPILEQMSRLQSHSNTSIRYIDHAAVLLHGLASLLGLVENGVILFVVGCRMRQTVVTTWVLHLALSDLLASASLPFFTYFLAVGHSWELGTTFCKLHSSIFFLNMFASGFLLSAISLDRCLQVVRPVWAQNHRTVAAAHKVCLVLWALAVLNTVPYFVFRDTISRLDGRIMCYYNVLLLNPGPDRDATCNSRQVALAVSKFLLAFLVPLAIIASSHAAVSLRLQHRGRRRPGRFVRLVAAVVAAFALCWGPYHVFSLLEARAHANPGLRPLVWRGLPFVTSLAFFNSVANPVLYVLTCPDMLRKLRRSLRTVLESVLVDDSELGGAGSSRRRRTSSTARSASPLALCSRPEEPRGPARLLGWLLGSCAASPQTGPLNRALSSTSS
Assay: Radioligand binding assay ([3H]PGD2 competition, HEK-hCRTH2 membranes)
Conditions: [3H]PGD2 binding, rated A-E (Table A)
Description: Biological Assays Radioligand Binding Assay.
Radioligand binding assays were performed at room temperature in 50 mM Tris-HCl pH 7.4, 1 mM EDTA containing 2 mM MnCl2 and 3.0 nM [^3H]PGD2 (New England Nuclear, Boston, Mass.) (171 Ci mmol^−1), in a final volume of 0.2 mL. Competing ligands were diluted in dimethylsulfoxide (Me2SO) that was kept constant at 1% (v/v) of the final incubation volume. The reaction was initiated by the addition of 8-20 μg of membrane protein prepared from a human embryonic kidney (HEK)-hCRTH2 cell line. Total and non-specific binding were determined in the absence and the presence of 10 μM PGD2, respectively. […] The reaction was routinely conducted for 60 min at room temperature and terminated by rapid filtration through prewetted (0.3% polyethyleneimine) 96-well printed Filtermate™ (Wallac) using a Tomtec® harvester (Hamden, Conn.). After washing with cold buffer, the filter was dried for 2 minutes in microwave, and Meltilex Scintillator sheet (Wallac) was melted on for 2 min. The radioactivity was measured with Betaplate model 1205 (Wallac).

Row | Ki | Compound
1 | 201 to 700 nM | O=C(O)CCCCc1nc2cc(C(=O)Nc3ccccc3F)ccc2nc1-c1ccc(F)cc1 [5P, 3-(4-fluorophenyl)-7-[[(2-fluorophenyl)amino]carbonyl]-2-quinoxalinepentanoic acid]
2 | 20.1 to 200 nM | CN(C)C(=O)c1ccc2nc(-c3ccc(F)cc3)c(CCCCC(=O)O)nc2c1 [5Q, 7-[(dimethylamino)carbonyl]-3-(4-fluorophenyl)-2-quinoxalinepentanoic acid]
3 | 2.1 to 20 nM | CC(C)NC(=O)c1ccc2nc(-c3ccc(F)cc3)c(CCCCC(=O)O)nc2c1 [5R, 3-(4-fluorophenyl)-7-[[(1-methylethyl)amino]carbonyl]-2-quinoxalinepentanoic acid]
4 | 2.1 to 20 nM | O=C(O)CCCCc1nc2cc(C(=O)N3CCC3)ccc2nc1-c1ccc(F)cc1 [5S, 7-(1-azetidinylcarbonyl)-3-(4-fluorophenyl)-2-quinoxalinepentanoic acid]
5 | 0.1 to 2 nM | O=C(O)CCCCc1nc2cc(C(=O)C3CC3)ccc2nc1-c1ccccc1 [6G, 7-(cyclopropylcarbonyl)-3-phenyl-2-quinoxalinepentanoic acid]
6 | 2.1 to 20 nM | COC(=O)c1ccc2nc(-c3ccccc3)c(CCCCC(=O)O)nc2c1 [6H, 7-(methoxycarbonyl)-3-phenyl-2-quinoxalinepentanoic acid]
7 | 0.1 to 2 nM | CC(C)C(=O)c1ccc2nc(-c3ccc(F)cc3)c(CCCCC(=O)O)nc2c1 [7C, 3-(4-fluorophenyl)-7-(2-methyl-1-oxopropyl)-2-quinoxalinepentanoic acid]
8 | 20.1 to 200 nM | C[C@@H](NC(=O)c1ccc2nc(CCCCC(=O)O)c(-c3ccccc3)nc2c1)c1ccc(F)cc1 [8G]
9 | 0.1 to 2 nM | O=C(O)CCCOc1nc2cc(C(=O)NCc3ccc(Cl)cc3)ccc2nc1-c1ccccc1 [10C, 4-({7-[(4-chlorobenzyl)carbamoyl]-3-phenylquinoxalin-2-yl}oxy)butanoic acid]
10 | 2.1 to 20 nM | C[C@H](NC(=O)c1ccc2nc(-c3ccccc3)c(OCCCC(=O)O)nc2c1)c1ccccc1 [10D, 4-[(3-phenyl-7-{[(1S)-1-phenylethyl]carbamoyl}quinoxalin-2-yl)oxy] butanoic acid]
11 | 0.1 to 2 nM | CN(Cc1ccccc1)C(=O)c1ccc2nc(-c3ccccc3)c(OCCCC(=O)O)nc2c1 [10E, 4-({7-[benzyl(methyl)carbamoyl]-3-phenylquinoxalin-2-yl}oxy)butanoic acid]
12 | 2.1 to 20 nM | O=C(O)CCCOc1nc2cc(C(=O)N3CCc4ccccc4C3)ccc2nc1-c1ccccc1 [10F, 4-{[7-(3,4-dihydroiso-quinolin-2(1H)-ylcarbonyl)-3-phenylquinoxalin-2-yl]oxy} butanoic acid]
13 | 201 to 700 nM | O=C(O)CCCCc1nc2cc(NC(=O)c3ccc(OC(F)(F)F)cc3)ccc2nc1-c1ccccc1 [11D]
14 | 201 to 700 nM | O=C(O)CCCCc1nc2cc(NC(=O)c3ccc(Cl)cc3)ccc2nc1-c1ccccc1 [11E, 5-(7-{[(4-chlorophenyl)-carbonyl]amino}-3-phenyl-quinoxalin-2-yl)pentanoic acid]
15 | 201 to 700 nM | O=C(O)CCCCc1nc2cc(NC(=O)Cc3ccc(C(F)(F)F)cc3)ccc2nc1-c1ccccc1 [11F, 5-[3-phenyl-7-({[4-(trifluoromethyl)phenyl]acetyl}amino)quinoxalin-2-yl]pentanoic acid]
16 | 20.1 to 200 nM | C[C@H](NC(=O)c1cnc2nc(-c3ccccc3)c(CCCCC(=O)O)nc2c1)c1ccccc1 [14C, 5-(3-phenyl-7-{[(1S)-1-phenylethyl]carbamoyl}pyrido[2,3-b]pyrazin-2-yl)pentanoic acid]
17 | 2.1 to 20 nM | O=C(O)CCCCc1nc2cc(C(=O)NCc3ccc(Cl)cc3)cnc2nc1-c1ccccc1 [14D, 5-{7-[(4-chlorobenzyl)-carbamoyl]-3-phenylpyrido[2,3-b]pyrazin-2-yl} pentanoic acid]
18 | 20.1 to 200 nM | O=C(O)CCCCc1nc2cc(C(=O)NC3(c4ccccc4)CC3)cnc2nc1-c1ccccc1 [14E, 5-{3-phenyl-7-[(1-phenylcyclopropyl)carbamoyl]-pyrido[2,3-b]pyrazin-2-yl}pentanoic acid]
19 | 20.1 to 200 nM | C[C@@H](NC(=O)c1cnc2nc(-c3ccccc3)c(CCCCC(=O)O)nc2c1)c1ccccc1 [14F, 5-(3-phenyl-7-{[(1R)-1-phenylethyl]carbamoyl}pyrido[2,3-b]pyrazin-2-yl)pentanoic acid]

Row | Ki | Compound
20 | 0.1 to 2 nM | O=C(O)CCCCc1nc2cc(C(=O)N3CCN(c4ccccc4)CC3)cnc2nc1-c1ccccc1 [14G, 5-{3-phenyl-7-[(4-phenylpiperazin-1-yl)carbonyl]pyrido [2,3-b]pyrazin-2-yl}pentanoic acid]
21 | 20.1 to 200 nM | CC(NC(=O)c1cnc2nc(-c3ccccc3)c(CCCCC(=O)O)nc2c1)c1ccncc1 (stereo not drawn) [14H, 5-{3-phenyl-7-[(1-pyridin-4-ylethyl)carbamoyl]pyrido[2,3-b]pyrazin-2-yl} pentanoic acid]
22 | 2.1 to 20 nM | C[C@@H](NC(=O)c1ccc2nc(-c3ccccc3)c(CCCCC(=O)O)nc2c1)c1ccccc1 [15A, 5-(3-phenyl-7-{[(1R)-1-phenylethyl]carbamoyl}quinoxalin-2-yl) pentanoic acid]
23 | 20.1 to 200 nM | O=C(O)CCCCc1nc2cc(C(=O)Nc3ccccc3)ccc2nc1-c1ccccc1 [15AA, 5-[3-phenyl-7-(phenylcarbamoyl)quinoxalin-2-yl] pentanoic acid]
24 | 0.1 to 2 nM | O=C(O)CCCCc1nc2cc(C(=O)NCc3ccccc3F)ccc2nc1-c1ccccc1 [15AB, 5-{7-[(2-fluorobenzyl)carbamoyl]-3-phenylquinoxalin-2-yl}pentanoic acid]
25 | 0.1 to 2 nM | O=C(O)CCCCc1nc2cc(C(=O)NCc3cccc(F)c3)ccc2nc1-c1ccccc1 [15AC, 5-{7-[(3-fluorobenzyl)carbamoyl]-3-phenylquinoxalin-2-yl}pentanoic acid]
26 | 2.1 to 20 nM | O=C(O)CCCCc1nc2cc(C(=O)NCc3ccc(F)cc3)ccc2nc1-c1ccccc1 [15AD, 5-{7-[(4-fluorobenzyl)carbamoyl]-3-phenylquinoxalin-2-yl}pentanoic acid]
27 | 2.1 to 20 nM | O=C(O)CCCCc1nc2cc(C(=O)NC3(c4ccccc4)CC3)ccc2nc1-c1ccccc1 [15AE, 5-{3-phenyl-7-[(1-phenylcyclopropyl)carbamoyl]quinoxalin-2-yl}pentanoic acid]
28 | 2.1 to 20 nM | O=C(O)CCCCc1nc2cc(C(=O)NCc3ccccn3)ccc2nc1-c1ccccc1 [15AF, 5-{3-phenyl-7-[(pyridin-2-ylmethyl)carbamoyl]quinoxalin-2-yl} pentanoic acid]
29 | 2.1 to 20 nM | O=C(O)CCCCc1nc2cc(C(=O)NCc3cccnc3)ccc2nc1-c1ccccc1 [15AG, 5-{3-phenyl-7-[(pyridin-3-ylmethyl)carbamoyl]quinoxalin-2-yl} pentanoic acid]
30 | 20.1 to 200 nM | O=C(O)CCCCc1nc2cc(C(=O)NCc3ccncc3)ccc2nc1-c1ccccc1 [15AH, 5-{3-phenyl-7-[(pyridin-4-ylmethyl)carbamoyl]quinoxalin-2-yl} pentanoic acid]
31 | 2.1 to 20 nM | O=C(O)CCCCc1nc2cc(C(=O)N3CCCCC3c3ccccc3)ccc2nc1-c1ccccc1 (stereo not drawn) [15AJ, 5-{3-phenyl-7-[(2-phenylpiperidin-1-yl)carbonyl]quinoxalin-2-yl}pentanoic acid]
32 | 2.1 to 20 nM | O=C(O)CCCCc1nc2cc(C(=O)N3CCC(c4ccccc4)C3)ccc2nc1-c1ccccc1 (stereo not drawn) [15AK, 5-{3-phenyl-7-[(3-phenylpyrrolidin-1-yl)carbonyl]quinoxalin-2-yl}pentanoic acid]
33 | 0.1 to 2 nM | O=C(O)CCCCc1nc2cc(C(=O)N3CCCC3c3ccccc3)ccc2nc1-c1ccccc1 (stereo not drawn) [15AL, 5-{3-phenyl-7-[(2-phenylpyrrolidin-1-yl)carbonyl]quinoxalin-2-yl}pentanoic acid]
34 | 2.1 to 20 nM | O=C(O)CCCCc1nc2cc(C(=O)NC3(c4ccccc4)CCC3)ccc2nc1-c1ccccc1 [15AM, 5-{3-phenyl-7-[(1-phenylcyclobutyl)carbamoyl]quinoxalin-2-yl}pentanoic acid]
35 | 2.1 to 20 nM | O=C(O)CCCCc1nc2cc(C(=O)N3CCN(c4ccccc4)CC3)ccc2nc1-c1ccccc1 [15AN, 5-{3-phenyl-7-[(4-phenylpiperazin-1-yl)carbonyl]quinoxalin-2-yl}pentanoic acid]
36 | 2.1 to 20 nM | O=C(O)CCCCc1nc2cc(C(=O)N3CCc4ccccc4C3)ccc2nc1-c1ccccc1 [15AP, 5-[7-(3,4-dihydroisoquinolin-2(1H)-ylcarbonyl)-3-phenylquinoxalin-2-yl]pentanoic acid]
37 | 2.1 to 20 nM | O=C(O)CCCCc1nc2cc(C(=O)NC3c4ccccc4CC3O)ccc2nc1-c1ccccc1 (stereo not drawn) [15AQ, 5-{7-[(2-hydroxy-2,3-dihydro-1H-inden-1-yl)carbamoyl]-3-phenylquinoxalin-2-yl}pentanoic acid]
38 | 0.1 to 2 nM | O=C(O)CCCCc1nc2cc(C(=O)NC3CCCc4ccccc43)ccc2nc1-c1ccccc1 (stereo not drawn) [15AR, 5-[3-phenyl-7-(1,2,3,4-tetrahydronaphthalen-1-ylcarbamoyl)quinoxalin-2-yl]pentanoic acid]

Same assay, conditions: [3H]PGD2 binding, values in text

Row | Ki | Compound
39 | 266 nM | O=C(O)CCCCc1nc2cc(C(=O)Nc3ccccc3F)ccc2nc1-c1ccc(F)cc1 [5P, 3-(4-fluorophenyl)-7-[[(2-fluorophenyl)amino]carbonyl]-2-quinoxalinepentanoic acid]
40 | 0.5 nM | O=C(O)CCCCc1nc2cc(C(=O)C3CC3)ccc2nc1-c1ccccc1 [6G, 7-(cyclopropylcarbonyl)-3-phenyl-2-quinoxalinepentanoic acid]
41 | 223 nM | O=C(O)CCCCc1nc2cc(NC(=O)Cc3ccc(C(F)(F)F)cc3)ccc2nc1-c1ccccc1 [11F, 5-[3-phenyl-7-({[4-(trifluoromethyl)phenyl]acetyl}amino)quinoxalin-2-yl]pentanoic acid]
42 | 1.6 nM | O=C(O)CCCCc1nc2cc(C(=O)NC3CCCc4ccccc43)ccc2nc1-c1ccccc1 (stereo not drawn) [15AR, 5-[3-phenyl-7-(1,2,3,4-tetrahydronaphthalen-1-ylcarbamoyl)quinoxalin-2-yl]pentanoic acid]

— patent publication US9469615B2, “Quinoxalines and AZA-quinoxalines as CRTH2 receptor modulators” (Merck Sharp & Dohme Corp., priority 2010, dated 2016)
